{"source": "patent US20210308078A1", "about": "“NEW USE OF INHIBITORS OF MONOAMINE OXIDASE TYPE B” (ISTITUTO Di RICERCA PEDiATRiCA CITTA DELLA SPERANZA, priority 2018, published 2021)", "key": {"MAOA, MAOB": {"system": "MAOA, MAOB", "settings": "cited from earlier work"}, "IL-1β [1]": {"system": "IL-1β", "experiment": "IL-1β release in human macrophages (ELISA)", "assay_type": "cell-based", "settings": "LPS/ATP and LPS/nigericin, 8 h, pargyline 100 μM, rasagiline 5 μM, NAC 5 mM", "method": "FIG. 6. […] The levels of IL-1β in the supernatants were quantified by means of ELISA test. The values are the average of at least 3 independent experiments±SEM.\n(§1) Human monocytes derived from buffy coats obtained from healthy donors were prepared as described in Cathcart, M. K., and Bhattacharjee, A. (2014). […] For macrophage differentiation, 5×10^6 monocytes, seeded in 24-well plates, were cultivated in RPMI 20% FBS in the presence of 10 ng/ml GM-CSF (Miltenyi Biotec) for 7 days. For inflammasome activation, 2×10^6 cells in 6-well plates were treated for 8 h with 100 ng/m1 of LPS Ultra-pure combined with ATP (1 mM) or nigericine (15 μM, added the last 30 min)."}, "caspase-1": {"system": "caspase-1", "experiment": "Caspase-1 activation assay (FLICA 660-YVAD-FMK, FACS) in human macrophages", "assay_type": "cell-based", "settings": "LPS/ATP and LPS/nigericin, 8 h; pargyline 100 μM, rasagiline 5 μM, NAC 5 mM", "method": "The cells were then marked with fluorescent antibodies anti-MHCII and analysed by FACS. The activity of the inflammasome was expressed as % of the cells that were positive for caspase-1 and for MHCII in relation to the total. The values are the average of at least 3 independent experiments±SEM.\nas §1\nThe activation of caspase-1 in human macrophages was monitored by way of flow cytometry analysis. The cells, subjected to various treatments, were incubated at 37° C. for 3 h with FLICA 660-YVAD-FMK and washed according to the manufacturer's instructions (FLICA®660 Caspase-1 Assay Kit; ImmunoChemistry Technologies). […] The analysis was performed using CellQuest software (Becton Dickinson) in cells positive for caspase-1 and MHCII."}, "IL-1β [2]": {"system": "IL-1β", "experiment": "IL-1β release in murine macrophages (ELISA)", "assay_type": "cell-based", "settings": "LPS 100 ng/ml + ATP 5 mM, 4 h, pargyline 100 μM, rasagiline 5 μM", "description": "FIG. 7. […] The levels of IL-1β in the supernatants were quantified by means of ELISA test.\nMurine macrophages isolated from bone marrow were obtained from the tibia and femoral bone as described in Coll, R. C., Robertson, A. A., Chae, J. J., Higgins, S. C., Munoz-Planillo, R., Inserra, M. C., Vetter, I., Dungan, L. S., Monks, B. G., Stutz, A., et al. (2015). A small-molecule inhibitor of the NLRP3 inflammasome for the treatment of inflammatory diseases. Nature medicine 21, 248-255.\n[…] ATP (5 mM, added the last 30 min).\nThe culture media sampled from stimulated and control human and murine macrophages were stored at −80° C. The levels of IL-1β0 were determined by means of commercially available ELISA kits (eBioscience) and were developed using 3,3′,5,5′-tetramethyl benzidine (TMB). The optical densities were measured at 450 nm by means of a microplate reader (Sunrise, Tecan; Switzerland)."}, "MAO": {"system": "MAO", "settings": "human macrophages stimulated 8 h with LPS, LPS/ATP or LPS/nig; pargyline 100 μM, rasagiline 5 μM", "method": "The intracellular levels of dopamine and norepinephrine (both substrates of MAO) were measured by means of mass spectrometry on cell lysates extracted with methanol:water (70:30). […] The values are the average of at least 3 independent experiments±SEM.\nas §1"}, "mice treated with LPS": {"system": "mice treated with LPS", "settings": "rasagiline 0.5 mg/kg per os 12 h before LPS 10 mg/kg ip, 8 h", "method": "In parallel, a group of mice (ct) were treated with only the vehicle (PBS, ip). At the end, a sample of blood was taken and the plasma levels of IL-1β0 were quantified by means of Elisa test. […] The values are the average of at least 3 independent experiments±SEM.\nIn parallel, a group of mice (ct) were treated with only the vehicle (PBS, ip). At the end, peritoneal washing with 2 ml of PBS was performed, as well as a leukocyte count.\nAdult mice were treated with a single injection of LPS (10 mg/kg ip) for 8 h or of vehicle (PBS, ip). […] At the end, the animals were sacrificed and samples were taken of blood and the peritoneal exudate.\nMale mice (strain C57BL/6J) of age 8-10 weeks and weight approximately 30 gr. were subjected to an intraperitoneal injection with LPS (10 mg/kg, L4130, Sigma-Aldrich) or vehicle (saline solution, called PBS). […] The treated animals were sacrificed 8 hours after the injection (considered as time 0), by means of cervical dislocation. Immediately after the sacrifice an intraperitoneal washing was performed with 2 ml of PBS and any exudate present was collected to determine the leukocyte count. In addition, samples of blood were taken and frozen after obtaining the plasma for analysis of IL-1β by means of ELISA test."}, "NF-κB": {"system": "NF-κB", "settings": "murine macrophages", "from_the_text": "The values are the average of at least 3 independent experiments±SEM."}, "human macrophages [3]": {"system": "human macrophages", "settings": "stimulation with LPS/ATP and LPS/nigericine, 3 h; rasagiline 5 μM", "method": "The images were acquired by means of fluorescence microscopy. The data are expressed as fluorescence intensity and are normalised with respect to unstimulated cells (unst). The values are the average of at least 3 independent experiments±SEM.\nas §1\nROS were determined by means of carboxymethyl-dichlorofluorescein (CM-DCFDA). […] After 3 h of stimulation the cells were loaded with CM-DCFDA (2.5 μM) for 30 min. All of the steps were performed at 37° C. with 5% CO2. The cells were washed with PBS and the images were acquired using a Leica DMI6000B microscope (Wetzlar, Germany). The fluorescence was measured at 6-8 random intervals per slide and an average value was recorded. The fluorescence emission was performed using excitation filters of emission 488±20 nm and 645±37 nm. The data were acquired and analysed by means of Metafluor software (Universal Imaging)."}, "human macrophages [4]": {"system": "human macrophages", "settings": "8 h of stimulation; rasagiline 5 μM pre-treatment", "method": "After 8 h of stimulation, the macrophages were loaded with tetramethylrhodamine methyl ester (TMRM, 50 nM) to determine the mitochondrial membrane potential. After acquisition of images by fluorescence microscopy, the uncoupling agent FCCP (4 μM) was added to collapse the mitochondrial potential. The difference of the fluorescence intensity obtained before and after FCCP is shown in the graph and reflects the mitochondrial membrane potential. The data are expressed as fluorescence intensity and are normalised with respect to unstimulated cells (unst). The values are the average of at least 3 independent experiments±SEM. […]\nThe mitochondrial membrane potential was measured on the basis of the accumulation of tetramethylrhodamine methyl ester (TMRM, Molecular Probes) as described in Sorato, E., Menazza, S., Zulian, A., Sabatelli, P., Gualandi, F., Merlini, L., Bonaldo, P., Canton, M., Bernardi, P., and Di Lisa, F. (2014). […] The medium was then substituted with a medium devoid of serum integrated with TMM 25 nM for 30 minutes, and the cell fluorescence images were acquired using a Leica microscope (Wetzlar, Germany) DMI6000B. The data were acquired and analysed by means of Metafluor software (Universal Imaging). An excitation of 540±20 nm and a 590 nm longpass emission filter were used to reveal the fluorescence. […]"}}, "data": [{"smiles": "N[C@@H]1C[C@H]1c1ccccc1", "note": "(racemic) [tranylcypromine]", "values": [{"measurement": "selectivity of inhibition for MAOA / MAOB isoforms", "setting": "MAOA, MAOB", "result": "lack selectivity"}]}, {"smiles": "CC(=O)N[C@@H](CS)C(=O)O", "note": "[N-acetylcysteine]", "values": [{"measurement": "release of IL-1β in supernatants", "setting": "IL-1β [1]", "result": "effect is similar"}, {"measurement": "activity of the inflammasome (% cells positive for caspase-1 and MHCII)", "setting": "caspase-1", "result": "effect is similar"}]}, {"smiles": "C#CCN(C)Cc1ccccc1", "note": "[pargyline]", "values": [{"measurement": "release of IL-1β in supernatants", "setting": "IL-1β [1]", "result": "significantly inhibit the release of IL-1β"}, {"measurement": "selectivity of inhibition for MAOA / MAOB isoforms", "setting": "MAOA, MAOB", "result": "able to inhibit both the isoforms"}, {"measurement": "release of IL-1β in supernatants", "setting": "IL-1β [2]", "result": "significantly inhibit the release of IL-1β"}, {"measurement": "activity of the inflammasome (% cells positive for caspase-1 and MHCII)", "setting": "caspase-1", "result": "significantly inhibit the activity of the inflammasome"}, {"measurement": "intracellular concentration of dopamine", "setting": "MAO", "result": "increases subsequently"}]}, {"smiles": "NNCCc1ccccc1", "note": "[phenelzine]", "values": [{"measurement": "selectivity of inhibition for MAOA / MAOB isoforms", "setting": "MAOA, MAOB", "result": "lack selectivity"}]}, {"smiles": "C#CCN[C@@H]1CCc2ccccc21", "note": "[rasagiline]", "values": [{"measurement": "concentration of leucocytes in the peritoneal liquid", "setting": "mice treated with LPS", "result": "clear reduction of the concentration of leucocytes"}, {"measurement": "plasma levels of IL-1β", "setting": "mice treated with LPS", "result": "drastically reduces the increase of plasma levels of IL-1β"}, {"measurement": "release of IL-1β in supernatants", "setting": "IL-1β [1]", "result": "significantly inhibit the release of IL-1β"}, {"measurement": "selectivity of inhibition for MAOA / MAOB isoforms", "setting": "MAOA, MAOB", "result": "MAOB are selectively inhibited"}, {"measurement": "release of IL-1β in supernatants", "setting": "IL-1β [2]", "result": "significantly inhibit the release of IL-1β"}, {"measurement": "activation of NF-κB", "setting": "NF-κB", "result": "reduce the activation of NF-κB"}, {"measurement": "protein levels of pro-IL-1β", "setting": "NF-κB", "result": "reduce"}, {"measurement": "production of ROS", "setting": "human macrophages [3]", "result": "reduces the production of ROS"}, {"measurement": "activity of the inflammasome (% cells positive for caspase-1 and MHCII)", "setting": "caspase-1", "result": "significantly inhibit the activity of the inflammasome"}, {"measurement": "intracellular concentration of dopamine", "setting": "MAO", "result": "increases subsequently"}, {"measurement": "mitochondrial depolarisation (mitochondrial membrane potential, TMRM)", "setting": "human macrophages [4]", "result": "significantly reduce the mitochondrial depolarisation"}]}]}
